The values that follow come from patent US20230416329A1, “A PEPTIDE WITH DISULFIDE BONDS AND INHIBITORY ACTIVITY AGAINST SERINE PROTEASES, DERIVED HYBRID PEPTIDES THEREOF, AND USES THEREOF” (INSTITUTE OF MATERIA MEDICA , CHINESE ACADEMY OF MEDICAL …, priority 2020, published 2023).

What is called share remaining is what is left of the initial amount, in per cent. Low readings indicate more turnover, high ones less turnover. As usually defined, the IC50 is the concentration at which inhibition is half-maximal. Low readings indicate greater potency, high ones weaker potency. A word on the Ki: it is the dissociation constant of the complex between target and ligand, obtained from inhibition or displacement.

The target in series [1] is T1, trypsin (Bos taurus, UniProt P00760).
T1 sequence (P00760 24-246): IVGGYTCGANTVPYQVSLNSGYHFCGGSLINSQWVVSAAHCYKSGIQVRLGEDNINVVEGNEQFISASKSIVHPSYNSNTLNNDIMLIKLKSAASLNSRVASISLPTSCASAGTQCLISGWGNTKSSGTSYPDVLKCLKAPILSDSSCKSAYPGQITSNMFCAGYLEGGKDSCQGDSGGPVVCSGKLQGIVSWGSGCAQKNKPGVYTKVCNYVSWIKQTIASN
The experiment in a line: in vitro. The protocol: FIG. 17. […] At different time point, 25 μL aliquots was taken out, and 10% (v/v) TFA was added to terminate the reaction.
(§1) Mix by centrifugation at 8000 rpm for 30 seconds.
Arrange a certain volume of 0.05 μg/μL trypsin solution in another sterile EP. Incubate the EP tubes containing peptides and enzymes at 37° C. for 5 min, and separately add 6 μL of trypsin solution to each EP tube containing peptides and mix well. Start timing and extract 25 μL of reaction solution at 1.5, 3.0, 4.5, 6.0 and 9.0 min later, respectively. Add 3.75 μL of 10% TFA to terminate the reaction and mix well by centrifugation at 8000 rpm for 30 seconds.
Arrange a certain volume of 0.05 μg/μL trypsin solution in another sterile EP. Incubate the EP tubes containing peptides and enzymes at 37° C. for 5 min, and add 9 μL of trypsin solution to each EP tube containing peptides and mix well. Start timing and extract 25 μL of reaction solution at 1.5, 3.0, 4.5, 6.0, 9.0, 15.0, 30.0, and 60.0 min later, respectively. Add 3.75 μL of 10% TFA to terminate the reaction and mix well by centrifugation at 8000 rpm for 30 seconds.
(§2) Referring to the experimental method in Example 5, in vitro stability of salmon Calcitonin analogs with oral administration activity to the enzymatic hydrolysis by trypsin, chymotrypsin and elastase were performed.
(§3) Referring to the experimental method in Example 5, in vitro stability of IL-17A inhibitory peptides towards the enzymatic hydrolysis by trypsin, chymotrypsin and elastase were performed.

Series [2] concerns the target chymotrypsin (Bos taurus, UniProt P00766). The experiment in a line: in vitro. As to the method:
FIG. 18. […] At different time point, 25 μL aliquots was taken out, and 10% (v/v) TFA was added to terminate the reaction.
as §1
Arrange a certain volume of 0.05 μg/μL chymotrypsin solution in another sterile EP. Incubate the EP tubes containing peptides and enzymes at 37° C. for 5 min, and add 3 μL of […] solution to each EP tube containing peptides and mix well. Start timing and extract 25 μL of reaction solution at 1.5, 3.0, 4.5, 6.0 and 9.0 min later, respectively. Add 3.75 μL of 10% TFA to terminate the reaction and mix well by centrifugation at 8000 rpm for 30 seconds.
Arrange a certain volume of 0.05 μg/μL chymotrypsin solution in another sterile EP. Incubate the EP tubes containing peptides and enzymes at 37° C. for 5 min, and then add 4.5 μL of chymotrypsin solution to each EP tube containing peptides and mix well. Start timing and extract 25 μL of reaction solution at 1.5, 3.0, 4.5, 6.0, 9.0, 15.0, 30.0, and 60.0 min later, respectively. Add 3.75 μL of 10% TFA to terminate the reaction and mix well by centrifugation at 8000 rpm for 30 seconds.
as §2, §3

The target in series [3] is α-chymotrypsin (Bos taurus, UniProt P00766). The experiment in a line: Chymotrypsin inhibitory activity of peptides (AAPFpNA hydrolysis; IC50, Ki, residual activity). The class given is biochemical. To be noted: for IC50: chymotrypsin 30 nM, AAPFpNA 0.5 mM; for Ki: Ki=IC50/(1+S/Km), Km 0.38 mM. In outline: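 Peptide preincubated 10 min at 37 °C with 30 nM α-chymotrypsin in 50 mM Tris-HCl pH 7.8, 20 mM CaCl2; 0.5 mM AAPFpNA then added and A405 read after 90 min. Residual activity versus controls gave IC50; Ki = IC50/(1+S/Km), with Km measured separately.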

Where [4] appears, read: isolated enzyme chymotrypsin, pH 7.8, Remaining peak area (%)/chymotrypsin.

Bridge positions count the residues as written; N and C are the ends. Square brackets hold non-standard residues; d marks the D form. Peptide text beside a SMILES is read from it. Hyp = O=C(O)[C@@H]1C[C@@H](O)CN1 Some results are limits rather than exact numbers.

As for `CC[C@H](C)[C@H](N)C(=O)N[C@@H](Cc1c[nH]cn1)C(=O)N[C@H](C(=O)N[C@H](C(=O)N[C@H](C(=O)N1CCC[C@H]1C(=O)N[C@@H](C)C(=O)N[C@@H](CC(=O)O)C(=O)N[C@@H](CC(C)C)C(=O)N[C@@H](Cc1c[nH]c2ccccc12)C(=O)N[C@@H](CC(=O)O)C(=O)N[C@@H](Cc1c[nH]c2ccccc12)C(=O)N[C@H](C(=O)N[C@@H](CC(N)=O)C(=O)NCC(=O)N[C@H]1CSSC[C@@H](C(=O)N[C@@H](Cc2ccccc2)C(=O)O)NC(=O)[C@H]([C@@H](C)CC)NC(=O)[C@@H]2CCCN2C(=O)[C@@H]2CCCN2C(=O)[C@H]([C@@H](C)CC)NC(=O)[C@H](CO)NC(=O)[C@H](CCCCN)NC(=O)[C@H]([C@@H](C)O)NC(=O)[C@H](C)NC(=O)[C@H](CCCNC(=N)N)NC(=O)CNC1=O)[C@@H](C)CC)[C@@H](C)CC)[C@@H](C)O)C(C)C` [17A-BT] (H-IHVTIPADLWDWINGCGRATKSIPPICF-OH; disulfide 16-27), the “stability towards trypsin hydrolysis (in words)” value in series [1] is recorded as “tolerated to the degradation of corresponding serine proteases”. Also, the “Remaining peak area (%)/chymotrypsin” value in series [2] (0 h) is given as 100.0 ± 0.0%. In series [2] (setting [4]), this compound showed an amount remaining at 0.025 h, 60 μM of 69.6 ± 3%; a share remaining at 0.05 h, 60 μM of 68.9 ± 4.8%; a fraction remaining at 0.075 h, 60 μM of 48.1 ± 4.3%; a fraction remaining at 0.1 h, 60 μM of 45.2 ± 1.3%. For the same compound, in series [2] (setting [4]), the fraction remaining at 0.15 h, 60 μM worked out at 42.9 ± 3%; the amount remaining at 0.25 h, 60 μM amounted to 37 ± 1.7%; the share remaining at 0.5 h, 60 μM was determined as 26.4 ± 0.4%; the fraction remaining at 1 h, 60 μM came out at 9.6 ± 0.8%.

The compound `NC(=O)CC[C@H](NC(=O)[C@@H]1CSSC[C@H](NC(=O)[C@@H](N)Cc2ccccc2)C(=O)N[C@@H](CC(N)=O)C(=O)N[C@@H](Cc2ccc(O)cc2)C(=O)N[C@@H](CO)C(=O)N[C@@H](CC(N)=O)C(=O)N2CCC[C@H]2C(=O)N2CCC[C@H]2C(=O)N[C@@H](CCC(N)=O)C(=O)N1)C(=O)O` [CH46] (H-FCNYSNPPQCQ-OH; disulfide 2-10; N-terminus and C-terminus assumed) returned an IC50 in series [3] of more than 50 µM.

Consider `CC[C@H](C)[C@H](N)C(=O)N[C@H]1CSSC[C@@H](C(=O)N[C@H](C(=O)O)[C@@H](C)CC)NC(=O)[C@H](CCC(N)=O)NC(=O)[C@H](C)NC(=O)[C@@H]2CCCN2C(=O)[C@H]([C@@H](C)CC)NC(=O)[C@H](CO)NC(=O)[C@H](Cc2ccc(O)cc2)NC(=O)[C@H]([C@@H](C)O)NC1=O` [CH47] (H-ICTYSIPAQCI-OH; disulfide 2-10; N-terminus and C-terminus assumed), for which, in series [3], the “inhibitory activity against chymotrypsin (in words)” value (“inhibitory activity” below) is on record as “good chymotrypsin inhibitory activity”, the Ki was found to be 3.68 µM and the IC50 is 8.52 µM.

The compound `CSCC[C@@H]1NC(=O)[C@H](C)NC(=O)[C@@H]2CCCN2C(=O)[C@H](CC(N)=O)NC(=O)[C@H](CO)NC(=O)[C@H](Cc2ccccc2)NC(=O)[C@H]([C@@H](C)O)NC(=O)[C@@H](NC(=O)[C@@H](N)C(C)C)CSSC[C@@H](C(=O)N[C@@H](Cc2c[nH]cn2)C(=O)O)NC1=O` [CH48] (H-VCTFSNPAMCH-OH; disulfide 2-10) had an IC50 in series [3] of more than 50 µM.

As for `CSCC[C@H](N)C(=O)N[C@H]1CSSC[C@@H](C(=O)N[C@H](C(=O)O)C(C)C)NC(=O)[C@H](CCCCN)NC(=O)[C@H](C)NC(=O)[C@@H]2CCCN2C(=O)[C@H](Cc2c[nH]cn2)NC(=O)[C@H](CO)NC(=O)[C@H](Cc2ccccc2)NC(=O)[C@H]([C@@H](C)O)NC1=O` [CH49] (H-MCTFSHPAKCV-OH; disulfide 2-10; N-terminus and C-terminus assumed), in series [3], the “inhibitory activity” value was “good chymotrypsin inhibitory activity”, the Ki is 9.81 µM and the IC50 stood at 22.7 µM.

On to `CSCC[C@@H]1NC(=O)CNC(=O)[C@@H]2CCCN2C(=O)[C@H](CC(=O)O)NC(=O)[C@H](CO)NC(=O)[C@H](Cc2ccccc2)NC(=O)[C@H]([C@@H](C)O)NC(=O)[C@@H](NC(=O)[C@@H](N)CCSC)CSSC[C@@H](C(=O)N[C@@H](CO)C(=O)O)NC1=O` [CH50] (H-MCTFSDPGMCS-OH; disulfide 2-10; N-terminus and C-terminus assumed), for which the IC50 in series [3] is more than 50 µM.

In the case of `CC[C@H](C)[C@@H]1NC(=O)[C@H](CO)NC(=O)[C@H](Cc2ccc(O)cc2)NC(=O)[C@H]([C@@H](C)O)NC(=O)[C@@H](NC(=O)[C@@H]2CCCN2)CSSC[C@@H](C(=O)N[C@@H](Cc2ccc(O)cc2)C(=O)O)NC(=O)[C@H](CCC(N)=O)NC(=O)[C@@H]2CCCN2C(=O)[C@@H]2CCCN2C1=O` [CH51] (H-PCTYSIPPQCY-OH; disulfide 2-10; N-terminus and C-terminus assumed), the “inhibitory activity” value in series [3] is “good chymotrypsin inhibitory activity”.

Regarding `CC[C@H](C)[C@@H]1NC(=O)[C@H](CO)NC(=O)[C@H](Cc2ccc(O)cc2)NC(=O)[C@H]([C@@H](C)O)NC(=O)[C@@H](NC(=O)[C@@H](N)Cc2ccccc2)CSSC[C@@H](C(=O)N[C@@H](Cc2ccc(O)cc2)C(=O)NCC(=O)O)NC(=O)[C@H](CCC(N)=O)NC(=O)[C@@H]2C[C@@H](O)CN2C(=O)[C@@H]2CCCN2C1=O` [CH52] (H-FCTYSIP[Hyp]QCYG-OH; disulfide 2-10), in series [3], the Ki is 0.36 µM and the IC50 stood at 0.84 µM.

Regarding `CC[C@H](C)[C@@H]1NC(=O)[C@H](CO)NC(=O)[C@H](Cc2ccc(O)cc2)NC(=O)[C@H]([C@@H](C)O)NC(=O)[C@@H](NC(=O)[C@@H](N)Cc2ccccc2)CSSC[C@@H](C(=O)N[C@@H](Cc2ccc(O)cc2)C(=O)NCC(=O)O)NC(=O)[C@H](CCC(N)=O)NC(=O)[C@@H]2CCCN2C(=O)[C@@H]2C[C@@H](O)CN2C1=O` [CH53, FCTYSIHypPQCYG] (H-FCTYSI[Hyp]PQCYG-OH; disulfide 2-10; C-terminus assumed), in series [3], the “inhibitory activity” value was “good chymotrypsin inhibitory activity”, the Ki amounted to 0.11 µM and half-maximal inhibition (IC50) required 0.25 µM.
